How the values were obtained:
[1] = system: Human acute myeloid leukemia cell line: Kasumi-1; assay: Tumor cell proliferation inhibition (CellTiter-Meiluncell luminescent cell viability assay); settings: Kasumi 1, 96 h; for inhibition at 0.01 µM: read-out: Inhibition Rate at 10 nM (%); for inhibition at 0.5 µM: read-out: Inhibition Rate at 500 nM (%)
[2] = target: T1, human Cereblon WT GST-tagged protein (Homo sapiens, UniProt Q96SW2); assay: CRBN-binding affinity, HTRF (CEREBLON BINDING kit); settings: for inhibition at 0.5 µM: read-out: Inhibition Rate at 0.5 µM (%); for inhibition at 2 µM: read-out: Inhibition Rate at 2 µM (%)
T1 construct: purchased CISBIO 64BDCRBNPEH

[3] = system: Human T lymphocytic leukemia cell line: Jurkat; assay: Tumor cell proliferation inhibition (CellTiter-Meiluncell luminescent cell viability assay); settings: 96 h; for inhibition at 0.01 µM: read-out: Inhibition Rate at 10 nM (%); for inhibition at 0.5 µM: read-out: Inhibition Rate at 500 nM (%)
[4] = system: Human multiple myeloma peripheral blood B lymphocyte cell (RPMI-8226); assay: as above; settings: RPMI-8226, 96 h; for inhibition at 0.01 µM: read-out: Inhibition Rate at 10 nM (%); for inhibition at 0.5 µM: read-out: Inhibition Rate at 500 nM (%)
[5] = system: Human multiple myeloma cell (MM.1S); assay: as above; settings: for inhibition at 0.01 µM / inhibition at 0.5 µM: Homo sapiens, MM1.S, 96 h; for inhibition at 0.01 µM: read-out: Inhibition Rate at 10 nM (%); for inhibition at 0.5 µM: read-out: Inhibition Rate at 500 nM (%)
[6] = system: Human myeloid monocytic leukemia cell (MV-4-11); assay: as above; settings: MV4-11, 96 h; for inhibition at 0.01 µM: read-out: Inhibition Rate at 10 nM (%); for inhibition at 0.5 µM: read-out: Inhibition Rate at 500 nM (%)
[7] = system: Human T cell acute lymphoblastic leukemia cell (CCRF-CEM); assay: as above; settings: 96 h; for inhibition at 0.01 µM: read-out: Inhibition Rate at 10 nM (%); for inhibition at 0.5 µM: read-out: Inhibition Rate at 500 nM (%)
Method: The tumor cells used herein were cultured in a cell culture medium listed in table 2 at 37°C in an incubator with 5% CO2. Prior to experimentation, all cell lines used were correctly identified by STR profiling, and tested negative for mycoplasma contamination using a mycoplasma detection kit through routine screenings.
The IC50 values of the compounds of the present disclosure (including the compounds in Table 1 and Examples) were determined using the CellTiter-Meiluncell Luminescent Cell Viability Assay Kit from Dalian Meilun Biotech Co., Ltd. The detailed procedure is as follows: Tumor cells were seeded in 96-well cell culture plates at the densities specified in Table 3. On the following day, the test compounds of the present disclosure were subjected to serial dilution. The dilution can be performed according to one of the following two methods: • (1) The first dilution method: The test compounds of the present disclosure (including the compounds in Table 1 and Examples) were subjected to 5-fold serial dilutions starting from a highest concentration of 2000 µM, resulting in a total of 9 concentrations from high to low (2000, 400, 80, 16, 3.2, 0.64, 0.128, 0.0256, 0.00512 µM). Subsequently, 0.5 µL of the test compound dilution was transferred into the 96-well plate containing the cells, with each well containing 100 µL of cell culture medium. […] Into the 96-well plate, the diluted test compounds and corresponding detection reagents were added, resulting in final test compound concentrations of 500 nM and 10 nM, respectively. The experimental procedure is described below using the diluted 2 µM test compound as an example.
0.5 µL of the aforementioned diluted compound of the present disclosure (including the compounds in Table 1 and Examples) was added to the seeded cells in 100 µL of medium, yielding a final test compound concentration of 10 nM. After the cells were treated with the compounds of the present disclosure for a specified period, the cell viability assay reagent was added to the culture medium according to the kit's instructions to determine cell viability. […] All controls were treated using the same procedure as the compounds of the present disclosure. The growth inhibition curves for the compounds of the present disclosure were plotted using Prism GraphPad software, and the IC50 values were calculated therefrom.

GSPT1 = assay: Western blot, degradation of substrate protein in hPBMCs; assay type: cell-based, Human; settings: 24 hours treatment, compounds at 50 nM and 500 nM (concentration behind the class not stated)
IKZF3 = target: T2, IKZF3 (Homo sapiens, UniProt Q96SW2+Q9UKT9); assay: as above; assay type: cell-based; settings: 24 hours treatment, compounds at 50 nM and 500 nM (concentration behind the class not stated)
T2 construct: effects of the compounds of the present disclosure on the expression of target proteins in cells; endogenous in cells; host or cells: human PBMCs (Milecell Biotechnologies)

WEE1 = target: T3, WEE1 (Homo sapiens, UniProt P30291+Q96SW2); assay: as above; assay type: cell-based; settings: 24 hours treatment, compounds at 50 nM and 500 nM (concentration behind the class not stated)
T3 construct: effects of the compounds of the present disclosure on the expression of target proteins in cells; endogenous in cells; host or cells: human PBMCs (Milecell Biotechnologies)

IKZF2 = target: T4, IKZF2 (Homo sapiens, UniProt Q96SW2+Q9UKS7); assay: as above; assay type: cell-based; settings: 24 hours treatment, compounds at 50 nM and 500 nM (concentration behind the class not stated)
T4 construct: effects of the compounds of the present disclosure on the expression of target proteins in cells; endogenous in cells; host or cells: human PBMCs (Milecell Biotechnologies)

IKZF1 = target: T5, IKZF1 (Homo sapiens, UniProt Q13422+Q96SW2); assay: as above; assay type: cell-based; settings: 24 hours treatment, compounds at 50 nM and 500 nM (concentration behind the class not stated)
T5 construct: effects of the compounds of the present disclosure on the expression of target proteins in cells; endogenous in cells; host or cells: human PBMCs (Milecell Biotechnologies)

CK1α = target: T6, CK1α (Homo sapiens, UniProt P48729+Q96SW2); assay: as above; assay type: cell-based; settings: 24 hours treatment, compounds at 50 nM and 500 nM (concentration behind the class not stated)
T6 construct: effects of the compounds of the present disclosure on the expression of target proteins in cells; endogenous in cells; host or cells: human PBMCs (Milecell Biotechnologies)

[8] = system: Human acute T lymphocytic leukemia cell (Molt4); assay: Tumor cell proliferation inhibition (CellTiter-Meiluncell luminescent cell viability assay); settings: MOLT-4, 96 h; for inhibition at 0.01 µM: read-out: Inhibition Rate at 10 nM (%); for inhibition at 0.5 µM: read-out: Inhibition Rate at 500 nM (%)
[9] = system: Human breast cancer cell (MCF-7); assay: as above; settings: MCF7, 96 h; for inhibition at 0.01 µM: read-out: Inhibition Rate at 10 nM (%); for inhibition at 0.5 µM: read-out: Inhibition Rate at 500 nM (%)

T5 sequence (Q13422 whole entry): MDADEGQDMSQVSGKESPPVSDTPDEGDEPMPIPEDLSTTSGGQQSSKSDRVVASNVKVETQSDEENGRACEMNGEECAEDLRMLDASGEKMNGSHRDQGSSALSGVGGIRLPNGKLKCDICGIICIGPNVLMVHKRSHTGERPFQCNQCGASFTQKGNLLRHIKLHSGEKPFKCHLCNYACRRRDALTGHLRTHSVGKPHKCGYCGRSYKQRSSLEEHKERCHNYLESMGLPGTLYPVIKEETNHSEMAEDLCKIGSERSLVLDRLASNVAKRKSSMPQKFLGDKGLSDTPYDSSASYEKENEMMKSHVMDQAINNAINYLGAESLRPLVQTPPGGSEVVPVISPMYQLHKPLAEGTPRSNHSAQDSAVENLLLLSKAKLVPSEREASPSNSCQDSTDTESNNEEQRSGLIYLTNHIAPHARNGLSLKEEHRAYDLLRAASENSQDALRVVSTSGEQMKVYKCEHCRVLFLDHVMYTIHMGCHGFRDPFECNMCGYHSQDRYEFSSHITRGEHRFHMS
T5 sequence (Q96SW2 whole entry): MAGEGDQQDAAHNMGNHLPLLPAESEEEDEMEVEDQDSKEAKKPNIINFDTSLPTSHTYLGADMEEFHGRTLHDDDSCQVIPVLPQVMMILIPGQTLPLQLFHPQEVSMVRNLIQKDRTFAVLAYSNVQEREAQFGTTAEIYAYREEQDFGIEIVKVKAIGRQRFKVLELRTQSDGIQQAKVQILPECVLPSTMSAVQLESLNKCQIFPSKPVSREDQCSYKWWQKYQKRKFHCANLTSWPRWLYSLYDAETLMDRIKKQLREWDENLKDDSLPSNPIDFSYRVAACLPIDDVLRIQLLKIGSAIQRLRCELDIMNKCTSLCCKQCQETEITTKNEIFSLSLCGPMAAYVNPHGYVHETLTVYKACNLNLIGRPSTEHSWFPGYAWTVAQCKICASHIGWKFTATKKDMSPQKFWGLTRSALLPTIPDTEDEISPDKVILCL
T5 sequence (Q16531 whole entry partner): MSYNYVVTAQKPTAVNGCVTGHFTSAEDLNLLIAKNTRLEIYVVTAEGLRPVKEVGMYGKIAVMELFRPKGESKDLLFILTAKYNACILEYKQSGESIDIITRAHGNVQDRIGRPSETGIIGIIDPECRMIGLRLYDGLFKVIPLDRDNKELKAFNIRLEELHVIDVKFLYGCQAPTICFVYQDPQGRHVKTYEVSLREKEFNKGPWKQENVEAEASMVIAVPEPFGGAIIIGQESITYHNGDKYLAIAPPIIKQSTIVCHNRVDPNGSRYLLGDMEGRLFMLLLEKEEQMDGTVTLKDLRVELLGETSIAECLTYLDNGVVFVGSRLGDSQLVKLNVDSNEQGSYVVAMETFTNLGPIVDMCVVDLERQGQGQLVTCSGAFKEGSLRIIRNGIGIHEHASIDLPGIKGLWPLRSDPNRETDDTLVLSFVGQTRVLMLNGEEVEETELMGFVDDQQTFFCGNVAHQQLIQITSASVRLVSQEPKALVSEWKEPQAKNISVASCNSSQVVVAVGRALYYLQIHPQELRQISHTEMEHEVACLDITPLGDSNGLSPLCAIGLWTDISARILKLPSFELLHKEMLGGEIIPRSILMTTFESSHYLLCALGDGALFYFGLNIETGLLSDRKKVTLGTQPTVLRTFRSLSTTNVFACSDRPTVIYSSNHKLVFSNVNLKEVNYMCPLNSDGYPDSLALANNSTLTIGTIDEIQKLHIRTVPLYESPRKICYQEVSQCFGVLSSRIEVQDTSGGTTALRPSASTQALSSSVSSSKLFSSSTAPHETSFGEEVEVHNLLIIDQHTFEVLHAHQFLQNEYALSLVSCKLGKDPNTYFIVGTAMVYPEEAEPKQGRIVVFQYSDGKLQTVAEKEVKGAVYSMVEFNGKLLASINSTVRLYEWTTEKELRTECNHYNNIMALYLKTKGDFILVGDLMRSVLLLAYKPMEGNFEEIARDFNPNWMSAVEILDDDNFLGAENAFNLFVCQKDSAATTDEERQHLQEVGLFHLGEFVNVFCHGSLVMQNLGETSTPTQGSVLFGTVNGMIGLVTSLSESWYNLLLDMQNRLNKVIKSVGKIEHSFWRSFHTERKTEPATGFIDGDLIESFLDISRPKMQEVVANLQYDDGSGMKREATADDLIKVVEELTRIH
T2 sequence (Q9UKT9 whole entry): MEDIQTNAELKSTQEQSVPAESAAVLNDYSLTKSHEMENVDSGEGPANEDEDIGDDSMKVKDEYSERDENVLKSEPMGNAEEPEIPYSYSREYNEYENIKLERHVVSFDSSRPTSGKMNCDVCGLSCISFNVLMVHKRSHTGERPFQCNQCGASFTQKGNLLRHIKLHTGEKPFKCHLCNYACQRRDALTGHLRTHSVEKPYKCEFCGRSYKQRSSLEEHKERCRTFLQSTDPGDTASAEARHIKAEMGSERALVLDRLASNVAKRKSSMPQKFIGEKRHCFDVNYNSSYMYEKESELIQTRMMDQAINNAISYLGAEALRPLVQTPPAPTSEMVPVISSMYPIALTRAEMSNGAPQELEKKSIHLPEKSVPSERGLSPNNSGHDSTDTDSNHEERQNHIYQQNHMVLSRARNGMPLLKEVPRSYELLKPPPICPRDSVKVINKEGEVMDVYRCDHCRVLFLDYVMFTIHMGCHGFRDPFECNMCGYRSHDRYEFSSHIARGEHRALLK
T2 sequence (Q96SW2 whole entry): as the sequence (Q96SW2 whole entry) above
T2 sequence (Q16531 whole entry partner): as the sequence (Q16531 whole entry partner) above
T4 sequence (Q9UKS7 whole entry): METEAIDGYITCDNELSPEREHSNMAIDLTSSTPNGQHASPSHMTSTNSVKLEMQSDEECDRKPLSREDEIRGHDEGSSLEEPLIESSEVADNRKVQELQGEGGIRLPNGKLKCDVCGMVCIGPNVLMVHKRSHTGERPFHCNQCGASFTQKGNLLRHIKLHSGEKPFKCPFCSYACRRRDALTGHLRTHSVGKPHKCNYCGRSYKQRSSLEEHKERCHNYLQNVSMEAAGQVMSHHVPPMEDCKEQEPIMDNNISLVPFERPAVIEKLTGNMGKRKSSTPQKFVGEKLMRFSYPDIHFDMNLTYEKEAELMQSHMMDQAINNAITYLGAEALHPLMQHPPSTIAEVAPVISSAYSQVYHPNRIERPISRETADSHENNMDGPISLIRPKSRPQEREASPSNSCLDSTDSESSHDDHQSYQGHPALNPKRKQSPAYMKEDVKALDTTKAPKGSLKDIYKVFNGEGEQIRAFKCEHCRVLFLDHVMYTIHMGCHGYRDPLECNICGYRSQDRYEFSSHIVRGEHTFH
T4 sequence (Q96SW2 whole entry): as the sequence (Q96SW2 whole entry) above
T4 sequence (Q16531 whole entry partner): as the sequence (Q16531 whole entry partner) above
T3 sequence (P30291 whole entry): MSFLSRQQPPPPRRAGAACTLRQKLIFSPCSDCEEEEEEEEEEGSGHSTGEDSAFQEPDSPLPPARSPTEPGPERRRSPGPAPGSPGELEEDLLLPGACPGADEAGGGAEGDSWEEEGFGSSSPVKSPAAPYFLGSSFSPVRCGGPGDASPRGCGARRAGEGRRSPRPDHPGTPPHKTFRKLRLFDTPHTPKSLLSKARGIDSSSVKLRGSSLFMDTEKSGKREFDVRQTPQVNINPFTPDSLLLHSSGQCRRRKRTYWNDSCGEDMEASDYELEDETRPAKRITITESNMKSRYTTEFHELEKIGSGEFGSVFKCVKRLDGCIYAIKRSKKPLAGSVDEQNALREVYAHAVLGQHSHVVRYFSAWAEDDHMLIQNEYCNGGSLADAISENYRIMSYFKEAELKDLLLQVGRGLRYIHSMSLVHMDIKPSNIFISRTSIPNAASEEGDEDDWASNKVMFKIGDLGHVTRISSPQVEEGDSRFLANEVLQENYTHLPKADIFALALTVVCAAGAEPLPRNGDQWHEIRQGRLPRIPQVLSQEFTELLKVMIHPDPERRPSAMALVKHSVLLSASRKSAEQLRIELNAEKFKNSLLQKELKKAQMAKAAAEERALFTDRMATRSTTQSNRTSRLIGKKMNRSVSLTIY
T3 sequence (Q96SW2 whole entry): as the sequence (Q96SW2 whole entry) above
T3 sequence (Q16531 whole entry partner): as the sequence (Q16531 whole entry partner) above
T1 sequence (Q96SW2 whole entry): as the sequence (Q96SW2 whole entry) above
T6 sequence (P48729 whole entry): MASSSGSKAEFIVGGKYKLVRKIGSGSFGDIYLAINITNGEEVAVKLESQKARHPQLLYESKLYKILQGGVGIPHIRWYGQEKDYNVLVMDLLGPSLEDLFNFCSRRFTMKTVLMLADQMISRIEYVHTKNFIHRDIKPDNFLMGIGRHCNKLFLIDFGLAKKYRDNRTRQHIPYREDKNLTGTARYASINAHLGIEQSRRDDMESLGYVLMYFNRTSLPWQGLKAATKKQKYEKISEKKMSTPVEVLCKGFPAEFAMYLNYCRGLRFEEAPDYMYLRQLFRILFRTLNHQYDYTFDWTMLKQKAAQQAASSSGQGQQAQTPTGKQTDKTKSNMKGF
T6 sequence (Q96SW2 whole entry): as the sequence (Q96SW2 whole entry) above
T6 sequence (Q16531 whole entry partner): as the sequence (Q16531 whole entry partner) above

Structure (SMILES)	inhibition at 0.01 µM [1]	inhibition at 0.5 µM [1]	inhibition at 0.5 µM [2]	inhibition at 2 µM [2]	inhibition at 0.01 µM [3]	inhibition at 0.5 µM [3]	inhibition at 0.01 µM [4]	inhibition at 0.5 µM [4]	inhibition at 0.01 µM [5]	inhibition at 0.01 µM [6]	inhibition at 0.5 µM [6]	inhibition at 0.01 µM [7]	inhibition at 0.5 µM [7]	GSPT1 substrate protein remaining % (GSPT1)	IKZF3 substrate protein remaining % (IKZF3)	Wee1 substrate protein remaining % (WEE1)	IKZF2 substrate protein remaining % (IKZF2)	IKZF 1 substrate protein remaining % (IKZF1)	CK1α substrate protein remaining % (CK1α)	inhibition at 0.01 µM [8]	also measured
O=C1CCC(N2Cc3cc(CN4CCC(c5cccs5)CC4)ccc3C2=S)C(=O)N1 (centres unmarked) [GT-08329, 3-(5-((4-(thiophen-2-yl)piperidin-1-yl)methyl)-1-thioxoisoindolin-2-yl)piperidine-2,6-dione]	5 to 10%	80 to 100%	40 to 53%	80 to 100%	10 to 20%	70 to 80%	10 to 20%	70 to 80%	10 to 20%	-5 to 0%	80 to 100%	10 to 20%	80 to 100%	A (0% ≤ substrate protein remaining % ≤ 80%)	B (80%< substrate protein remaining %≤ 100%)	A (0% ≤ substrate protein remaining % ≤ 80%)	B (80%< substrate protein remaining %≤ 100%)	B (80%< substrate protein remaining %≤ 100%)	A (0% ≤ substrate protein remaining % ≤ 80%)	10 to 20%	Inhibition Rate at 500 nM (%) ([5]; MM.1S, 500 nM, 96 hours): la10; inhibition at 0.5 µM [8]: 80 to 100%
O=C1CCC(N2Cc3cc(CN4CC=C(c5cccs5)CC4)ccc3C2=S)C(=O)N1 (centres unmarked) [GT-08171, 3-(5-((4-(thiophen-2-yl)-3,6-dihydropyridin-1(2H)-yl)methyl)-1-thioxoisoindolin-2-yl)piperidine-2,6-dione]	30 to 40%	80 to 100%	60 to 80%	80 to 100%	40 to 50%	80 to 100%	20 to 30%	80 to 100%	50 to 60%	60 to 80%	80 to 100%	70 to 80%	80 to 100%	A (0% ≤ substrate protein remaining % ≤ 80%)	A (0% ≤ substrate protein remaining % ≤ 80%)	A (0% ≤ substrate protein remaining % ≤ 80%)	A (0% ≤ substrate protein remaining % ≤ 80%)	A (0% ≤ substrate protein remaining % ≤ 80%)	A (0% ≤ substrate protein remaining % ≤ 80%)	80 to 100%	inhibition at 0.5 µM [5]: 80 to 100%; inhibition at 0.01 µM [9]: 20 to 30%; inhibition at 0.5 µM [9]: 70 to 80%; inhibition at 0.5 µM [8]: 80 to 100%
Cc1cc(C2CCN(Cc3ccc4c(c3)CN(C3CCC(=O)NC3=O)C4=S)CC2)cs1 (centres unmarked) [GT-08325, 3-(5-((4-(5-methylthiophen-3-yl)piperidin-1-yl)methyl)-1-thioxoisoindolin-2-yl)piperidine-2,6-dione]	0 to 5%	80 to 100%	60 to 80%	80 to 100%	-5 to 0%	70 to 80%	20 to 30%	60 to 70%	30 to 40%	60 to 80%	100 to 110%	10 to 20%	80 to 100%	A (0% ≤ substrate protein remaining % ≤ 80%)	B (80%< substrate protein remaining %≤ 100%)	A (0% ≤ substrate protein remaining % ≤ 80%)	B (80%< substrate protein remaining %≤ 100%)	B (80%< substrate protein remaining %≤ 100%)	A (0% ≤ substrate protein remaining % ≤ 80%)	10 to 20%	inhibition at 0.5 µM [5]: 80 to 100%; inhibition at 0.5 µM [8]: 80 to 100%
Cc1cc(C2=CCN(Cc3ccc4c(c3)CN(C3CCC(=O)NC3=O)C4=S)CC2)cs1 (centres unmarked) [GT-08327, 3-(5-((4-(5-methylthiophen-3-yl)-3,6-dihydropyridin-1(2H)-yl)methyl)-1-thioxoisoindolin-2-yl)piperidine-2,6-dione]	30 to 40%	80 to 100%	53 to 60%	80 to 100%	20 to 30%	80 to 100%	10 to 20%	80 to 100%	40 to 50%	40 to 60%	80 to 100%	30 to 40%	80 to 100%	A (0% ≤ substrate protein remaining % ≤ 80%)	A (0% ≤ substrate protein remaining % ≤ 80%)	A (0% ≤ substrate protein remaining % ≤ 80%)	A (0% ≤ substrate protein remaining % ≤ 80%)	A (0% ≤ substrate protein remaining % ≤ 80%)	A (0% ≤ substrate protein remaining % ≤ 80%)	10 to 20%	inhibition at 0.5 µM [5]: 80 to 100%; inhibition at 0.01 µM [9]: 0 to 5%; inhibition at 0.5 µM [9]: 70 to 80%; inhibition at 0.5 µM [8]: 80 to 100%
O=C1CCC(N2Cc3cc(CN4CCC(c5cccc(F)c5Cl)CC4)ccc3C2=S)C(=O)N1 (centres unmarked) [GT-08330, 3-(5-((4-(2-chloro-3-fluorophenyl)piperidin-1-yl)methyl)-1-thioxoisoindolin-2-yl)piperidine-2,6-dione]	5 to 10%	80 to 100%	40 to 53%	60 to 80%	-5 to 0%	70 to 80%	10 to 20%	70 to 80%	20 to 30%	10 to 18%	80 to 100%	5 to 10%	80 to 100%	A (0% ≤ substrate protein remaining % ≤ 80%)	A (0% ≤ substrate protein remaining % ≤ 80%)	A (0% ≤ substrate protein remaining % ≤ 80%)	A (0% ≤ substrate protein remaining % ≤ 80%)	A (0% ≤ substrate protein remaining % ≤ 80%)	A (0% ≤ substrate protein remaining % ≤ 80%)	-5 to 0%	inhibition at 0.5 µM [5]: 80 to 100%; inhibition at 0.01 µM [9]: 10 to 20%; inhibition at 0.5 µM [9]: 50 to 60%; inhibition at 0.5 µM [8]: 80 to 100%

Reference: patent EP4745135A1 (Gluetacs Therapeutics (Shanghai) Co., Ltd., priority 2023, dated 2025)
